Laboratory results taken from ChEMBL document CHEMBL1201862, “PubChem BioAssay data set” (2004).
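Test compounds were applied to cells in 96-well plates for 48 hours at 5 doses. Here, GI50 denotes the concentration required for 50% inhibition of growth.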 Calls of active or inactive are those of the source. Rule as the data show it: active = GI50 up to about 1.1 µM and inactive = higher.

Legend:
Test in all cases: NCI-60 cell line screen, 48 h
LOX IMVI = tested on: LOX IMVI
ACHN = tested on: ACHN
SK-OV-3 = tested on: SK-OV-3
SNB-19 = tested on: SNB-19
HOP-92 = tested on: HOP-92
SK-MEL-5 = tested on: SK-MEL-5
SK-MEL-2 = tested on: SK-MEL-2
OVCAR-4 = tested on: OVCAR-4
SW-620 = tested on: SW-620
A549 = tested on: A549
HCT-116 = tested on: HCT-116
U-251 = tested on: U-251
CAKI-1 = tested on: CAKI-1
NCI-H226 = tested on: NCI-H226
A498 = tested on: A498
KM12 = tested on: KM12
SN12C = tested on: SN12C
HT-29 = tested on: HT-29
PC-3 = tested on: PC-3

| Compound | GI50 (LOX IMVI) | GI50 (ACHN) | GI50 (SK-OV-3) | GI50 (SNB-19) | GI50 (HOP-92) | GI50 (SK-MEL-5) | GI50 (SK-MEL-2) | GI50 (OVCAR-4) | GI50 (SW-620) | GI50 (A549) | GI50 (HCT-116) | GI50 (U-251) | GI50 (CAKI-1) | GI50 (NCI-H226) | GI50 (A498) | GI50 (KM12) | GI50 (SN12C) | GI50 (HT-29) | GI50 (PC-3) |
| --- | --- | --- | --- | --- | --- | --- | --- | --- | --- | --- | --- | --- | --- | --- | --- | --- | --- | --- | --- |
| CCc1cccc(C(C)C)c1NC(=O)C(=O)C(C(=O)C(=O)OC)c1nc2ccccc2nc1O (stereo not drawn) | > 100 µM (inactive) | > 100 µM (inactive) | > 100 µM (inactive) | > 100 µM (inactive) | > 100 µM (inactive) | > 100 µM (inactive) | > 100 µM (inactive) | > 100 µM (inactive) | > 100 µM (inactive) | > 100 µM (inactive) | > 100 µM (inactive) | > 100 µM (inactive) | > 100 µM (inactive) | > 100 µM (inactive) | > 100 µM (inactive) | > 100 µM (inactive) | > 100 µM (inactive) | > 100 µM (inactive) |  |
| CCOC(=O)c1oc2ccc(OC)c3c2c1CCC3 | > 100 µM (inactive) | > 100 µM (inactive) | > 100 µM (inactive) | > 100 µM (inactive) | 41.6 µM (inactive) | 84.7 µM (inactive) | > 100 µM (inactive) | 51.6 µM (inactive) | > 100 µM (inactive) | > 100 µM (inactive) |  | > 100 µM (inactive) |  | > 100 µM (inactive) | > 100 µM (inactive) | > 100 µM (inactive) | > 100 µM (inactive) | > 10 µM (inactive) |  |
| CC(=O)/C=C1\CC(=O)Nc2ccccc2N1 | > 100 µM (inactive) | > 100 µM (inactive) | > 100 µM (inactive) | > 100 µM (inactive) | > 100 µM (inactive) | > 100 µM (inactive) | > 100 µM (inactive) | > 100 µM (inactive) | > 100 µM (inactive) | > 100 µM (inactive) | > 100 µM (inactive) | > 100 µM (inactive) | > 100 µM (inactive) | > 100 µM (inactive) | > 100 µM (inactive) | > 100 µM (inactive) | > 100 µM (inactive) | > 100 µM (inactive) |  |
| O=C1/C(=C/c2cc(O)c(O)c(O)c2)Oc2cc(O)cc(OC3OC(CO)C(O)C(O)C3O)c21 (stereo not drawn) | 1.73 µM (inactive) | 11.6 µM (inactive) | 46.1 µM (inactive) | > 100 µM (inactive) | 3.82 µM (inactive) | 13.3 µM (inactive) | 16.2 µM (inactive) | 2.06 µM (inactive) | 24.1 µM (inactive) | 32.4 µM (inactive) | 16.3 µM (inactive) | > 10 µM (inactive) |  |  | 23.9 µM (inactive) | 29.6 µM (inactive) | 17.3 µM (inactive) | 23.9 µM (inactive) |  |
| CC/C(C)=C1\CCC(CN(C)C)C1=O (stereo not drawn) | 20.6 µM (inactive) | 18.9 µM (inactive) |  | > 100 µM (inactive) | 23.2 µM (inactive) | 33.3 µM (inactive) | 17.6 µM (inactive) | 17.6 µM (inactive) | 22.9 µM (inactive) | 22.9 µM (inactive) | 17.8 µM (inactive) |  | 1.91 µM (inactive) | > 100 µM (inactive) | 20.6 µM (inactive) | 15 µM (inactive) | 20.1 µM (inactive) | 23.1 µM (inactive) |  |
| CCOc1ccccc1NC(=O)C(=O)Cc1nc2ccccc2s1 |  | > 100 µM (inactive) | > 100 µM (inactive) | > 100 µM (inactive) | > 100 µM (inactive) | > 100 µM (inactive) | > 100 µM (inactive) | 90.4 µM (inactive) | > 100 µM (inactive) | > 100 µM (inactive) | > 100 µM (inactive) | > 100 µM (inactive) | > 100 µM (inactive) | > 100 µM (inactive) | > 100 µM (inactive) | > 100 µM (inactive) | > 100 µM (inactive) | > 100 µM (inactive) |  |
| C=CCc1cc(-c2cc(CC=C)c(O)c(CNCCCl)c2)cc(CNCCCl)c1O | 15.3 µM (inactive) | 16.5 µM (inactive) |  | 30 µM (inactive) | 10.6 µM (inactive) | 15.3 µM (inactive) | 19.2 µM (inactive) | 22.9 µM (inactive) | 20.8 µM (inactive) | 24.3 µM (inactive) | 19.4 µM (inactive) | 16.6 µM (inactive) |  | 18.3 µM (inactive) | 18.7 µM (inactive) | 17.3 µM (inactive) | 19.8 µM (inactive) | 17.4 µM (inactive) |  |
| COC(=O)C(CCS(=O)(=O)CC(=O)C(=O)Nc1cccc(C(C)=O)c1)C(=O)OC | > 61.9 µM (inactive) | > 100 µM (inactive) | > 100 µM (inactive) | > 100 µM (inactive) | > 100 µM (inactive) | > 100 µM (inactive) | > 100 µM (inactive) | > 100 µM (inactive) | > 100 µM (inactive) | > 100 µM (inactive) | > 56.6 µM (inactive) | > 89.7 µM (inactive) | > 100 µM (inactive) | > 100 µM (inactive) | > 100 µM (inactive) | > 100 µM (inactive) | > 100 µM (inactive) | > 100 µM (inactive) |  |
| Cc1nc(Nc2nc3ccccc3[nH]2)nc(Cl)c1CCCl |  | > 100 µM (inactive) |  | > 100 µM (inactive) | < 0.01 µM (active) | > 100 µM (inactive) | > 100 µM (inactive) | > 100 µM (inactive) | > 100 µM (inactive) | > 100 µM (inactive) | > 100 µM (inactive) | 49 µM (inactive) | > 100 µM (inactive) | > 100 µM (inactive) | > 100 µM (inactive) | > 100 µM (inactive) | > 100 µM (inactive) | > 100 µM (inactive) | > 100 µM (inactive) |
| N/N=C1\C(=O)N(C2CCCCC2)C(=O)C1C(=O)NC1CCCCC1 (stereo not drawn) | > 100 µM (inactive) | > 100 µM (inactive) | 47.5 µM (inactive) | > 100 µM (inactive) | > 100 µM (inactive) | 33.7 µM (inactive) | 28.9 µM (inactive) | > 100 µM (inactive) | > 100 µM (inactive) | > 100 µM (inactive) | > 100 µM (inactive) | > 100 µM (inactive) | > 100 µM (inactive) | > 100 µM (inactive) | > 100 µM (inactive) | > 100 µM (inactive) | 31.6 µM (inactive) | > 100 µM (inactive) |  |
| N#C/C(=C\c1cccc(Cl)c1Cl)c1ccccc1 | > 75.9 µM (inactive) | 44.9 µM (inactive) | 45.7 µM (inactive) | > 49.3 µM (inactive) | 44.5 µM (inactive) | 65.3 µM (inactive) | 47.1 µM (inactive) | 61.5 µM (inactive) | > 53 µM (inactive) | 66.8 µM (inactive) | 33 µM (inactive) | 36.2 µM (inactive) | 40.1 µM (inactive) | 56.2 µM (inactive) | 34.6 µM (inactive) | > 82.4 µM (inactive) | 49.1 µM (inactive) | > 89.5 µM (inactive) |  |
| NC1=NN(c2ccccc2)C(=O)C1/C(=N\NC(=O)c1cc2ccccc2cc1O)C(=O)Nc1nc([N+](=O)[O-])cs1 (stereo not drawn) | 18.4 µM (inactive) | 34.4 µM (inactive) | 55.7 µM (inactive) | > 60.1 µM (inactive) | 13.7 µM (inactive) | 20.3 µM (inactive) | > 49.8 µM (inactive) | 33.7 µM (inactive) | 27.9 µM (inactive) | 32.7 µM (inactive) | 32.1 µM (inactive) | 27.7 µM (inactive) | > 25.6 µM (inactive) | 49.1 µM (inactive) | 41.2 µM (inactive) | 30.3 µM (inactive) | 37 µM (inactive) | 32.7 µM (inactive) |  |
| CC1CC(C2=CC=CCS2)=Nc2ccccc2S1 (stereo not drawn) | > 100 µM (inactive) | > 100 µM (inactive) | > 100 µM (inactive) | 71.3 µM (inactive) | 48.4 µM (inactive) | > 100 µM (inactive) | > 100 µM (inactive) | > 100 µM (inactive) | > 100 µM (inactive) | > 100 µM (inactive) | 84.9 µM (inactive) | > 100 µM (inactive) | > 100 µM (inactive) |  | > 100 µM (inactive) | > 100 µM (inactive) | > 100 µM (inactive) |  |  |
| COC(=O)/C(=C/c1ccc(OC)cc1)C(C(=O)O)=C1CCCC1 | > 100 µM (inactive) | > 100 µM (inactive) | > 100 µM (inactive) | > 100 µM (inactive) | > 100 µM (inactive) | > 100 µM (inactive) | > 100 µM (inactive) | > 100 µM (inactive) | > 100 µM (inactive) | > 100 µM (inactive) | > 100 µM (inactive) | > 100 µM (inactive) | > 100 µM (inactive) | > 100 µM (inactive) | > 100 µM (inactive) | > 100 µM (inactive) | > 100 µM (inactive) | > 100 µM (inactive) |  |
| CC(=O)OC1CC2C(C)(C)C(=O)C=C[C@]2(C)C2CCC3(C)C(c4ccoc4)[C@@H](O)[C@H]4O[C@]43[C@]12C (stereo partly drawn) | 16.9 µM (inactive) | 21.8 µM (inactive) | 20.7 µM (inactive) | 24 µM (inactive) | 20.3 µM (inactive) | 17.5 µM (inactive) | 18.9 µM (inactive) | 19.7 µM (inactive) | 18.9 µM (inactive) | 36 µM (inactive) | 24.9 µM (inactive) | 14.6 µM (inactive) | 22 µM (inactive) | 18.4 µM (inactive) | 29.6 µM (inactive) | 19.2 µM (inactive) | 18.6 µM (inactive) | 21.7 µM (inactive) |  |
| COC1=CC(=O)[C@H]2[C@H](C)C(c3ccccc3)[C@@]2(C)C1=O (stereo partly drawn) | > 100 µM (inactive) | > 100 µM (inactive) | > 100 µM (inactive) | > 100 µM (inactive) | > 100 µM (inactive) | > 100 µM (inactive) | > 100 µM (inactive) | > 100 µM (inactive) | > 100 µM (inactive) | > 100 µM (inactive) |  | > 100 µM (inactive) | > 100 µM (inactive) |  | > 100 µM (inactive) | > 100 µM (inactive) |  | > 100 µM (inactive) |  |
